Measurements reported in publication PMC8624133, “10th Trends in Medical Mycology Held on 8 to 11 October 2021, Aberdeen, Scotland, Organized by the European Confederation of Medical Mycology (ECMM)” (Journal of Fungi, 2021).
Values after ≈ are worked out from the molar mass of the structure shown. Like-named read-outs stand apart in the source and are kept apart here.

Key:
[1] = system: C. auris; experiment: Postantifungal effect (PAFE); format: cell-based, Candida auris; details: 2 and 4 mg/L, 1 h exposure, six blood isolates
Protocol: Materials & Methods: PAFE experiments were performed in microtitre plates, with six C. auris clinical blood isolates (Hospital La Fe, Valencia, Spain). […] Cell pellets were re-suspended in RPMI medium and added back to the microtitre plates. Sample for viable counts were taken at 0, 2, 4, 6, 8, 24 and 48 h after re-suspension, plated in triplicate onto Sabouraud dextrose agar and incubated for 24–48 h at 37 °C. Experiments were performed in duplicate for each isolate on different days. PAFE was calculated as follows: PAFE = T − C. Where “T” is the time needed by the treated fungal cultures to growth 1 log after drug removal and “C” is the time needed by the control group to growth 1 log after last washout. Additionally, maximum log reductions of time-kill and PAFE experiments were compared and used to calculate a PAFE/time-kill index to determine the percentage of cell killing that could be attributed to the PAFE.

[2] = system: C. auris isolates; experiment: AmB Etest; format: cell-based, Candida auris; details: for MIC: Candidozyma auris
Protocol: Methods: A total of 313 C. auris isolates representing five geographic clades (I—South Asian; II—East Asian; III—South African; IV—South American; V—Iranian) were investigated in this study. Antifungal susceptibility testing (AFST) with AmB was performed with Etest according to the manufacturer instructions. […] Ergosterol biosynthesis pathway genes ERG2 (C-8 sterol isomerase), ERG3 (C-5 sterol desaturase), ERG6 (sterol 24-C-methyltransferase), and ERG11 (lanosterol 14-α-demethylase) were amplified and sequenced. […] AmB susceptibility was then determined for the transformed strain.

[3] = system: C. albicans; experiment: […] candidemia survey, susceptibility according to CLSI; format: cell-based, Candida albicans
[4] = system: C. auris; experiment: ARIA surveillance, CLSI M27 broth microdilution; format: cell-based, Candida auris; details: CDC tentative breakpoints
[5] = system: C. parapsilosis SC isolates; experiment: Candidemia survey Greece, susceptibility per hospital protocol; format: cell-based, Candida parapsilosis species complex
[6] = system: Cryptococcus neoformans var grubii; experiment: microbe, parasite or virus in culture; format: cell-based; details: read-out: Minimal Inhibitory Concentration (MIC)
[7] = system: Candida auris isolates; experiment: Disc diffusion, Oxoid discs; format: cell-based; details: 25 µg FLU and 5 µg CAS discs; […]
[8] = system: clinical dermatophyte isolates; experiment: Inhibition of dermatophyte biofilm formation; format: cell-based
Protocol: Materials and Methods: The study population consisted of 50 dermatophyte isolates that were collected from 2019 to 2020 from patients referred to the two mycology laboratory of Shiraz, Iran. The isolates were identified by ITS gene region sequencing. The suspension (equivalent to 0.5 McFarland) of the isolates was used to evaluate the ability of the isolates to form biofilms and also the effect of itraconazole, terbinafine and griseofulvin at concentrations of 2–32 μg/mL on inhibiting biofilm formation. Two optical microscope and a scanning electron microscope were used to study the microscopic structure of biofilms formed on the surface of 96-well plate wells.

[9] = system: Aspergillus isolates (total); experiment: Triazole resistance agar screening, four-well plate; details: RPMI agar, 1 µg/mL, 50 isolates
Protocol: All the isolates were identified phenotypically. […] Fungal spores were suspended in normal saline (0.85%) and adjusted to 0.5 McFarland and 50 μL was plated in each well. […] Plates were incubated at 35–37 °C for 72 h in ambient air. The presence or absence of growth was observed visually at 24 h, 48 h, and 72 h.

[10] = Universal voriconazole prophylaxis in lung transplant recipients, retrospective; format: in vivo, human
Protocol: Materials & Methods: Retrospective study of all adult lung transplant recipients at Copenhagen University Hospital during 2010 to 2019. […] Failure to complete prophylaxis was defined as recieving <9 of the intented 12 weeks of prophylaxis. Liver and kidney toxicity was graded according to Common Terminology Criteria for Adverse Events (CTCAE) criteria (grades 0–4 according to degree of elevation). Grade ≥2 adverse events were classified as high. Lung biopsies were evaluated for acute rejection (grade ≥A2). Calcineurin-inhibitor (CNI) plasma-concentrations were evaluated for off-target episodes. High and low episodes were defined as ≥2 concecutive samples 20% above or below target range limits, respectively. […] Acute rejections were classified as related to low CNI if they occurred 0–30 days from low CNI. Grade ≥2 kidney toxicity was considered related to high CNI if it occurred between two days prior to high CNI to 7 days after.

For C[C@@H]1[C@H](O)[C@@H](C)/C=C/C=C/C=C/C=C/C=C/C=C/C=C/[C@H](O[C@@H]2O[C@H](C)[C@@H](O)[C@H](N)[C@@H]2O)C[C@@H]2O[C@](O)(C[C@@H](O)C[C@@H](O)[C@H](O)CC[C@@H](O)C[C@@H](O)CC(=O)O[C@H]1C)C[C@H](O)[C@H]2C(=O)O [amphotericin B], the PAFE [1] was 3.5 to 6.5 h, the “isolates with AmB MIC values ≥2 mg/L” value ([2]; 19 of 313 isolates) was 6.1% and the MIC ([2]; read-out: AmB MIC, South African isolate SA18, ERG6 missing base pairs 52–543) was 6 mg/L (≈ 6.49 µM). For the same compound, the MIC ([2]; read-out: AmB MIC, susceptible strain after replacement with ERG6 of SA18) was greater than 32 mg/L and the MIC ([2]; read-out: AmB MIC, susceptible strain with wild-type ERG6) was 0.5 mg/L (≈ 0.541 µM).
OC(Cn1cncn1)(Cn1cncn1)c1ccc(F)cc1F [fluconazole] gave a non-susceptibility [3] of 1%, a susceptible [4] of 56.3% and a Resistance [5] of 20%. For the same compound, the MIC [6] was greater than 32 mg/L and the “median zone diameter (ZD)” value [7] was 0 mm.
For CCC(C)n1ncn(-c2ccc(N3CCN(c4ccc(OCC5COC(Cn6cncn6)(c6ccc(Cl)cc6Cl)O5)cc4)CC3)cc2)c1=O (centres unmarked) [itraconazole], the IC50 ([8]; inhibition of biofilm formation, read-out: mean concentrations of IC50) was 3.78 mg/L (≈ 5.36 µM) and the “samples with IC50 in concentration <2” value ([8]; tested at 2–32 μg/mL) was 70%.
For C[C@@H](c1ncncc1F)[C@](O)(Cn1cncn1)c1ccc(F)cc1F [voriconazole], the “isolates with growth only in voriconazole well, n (%)” value ([9]; 48 h) was 1 (2%), the “isolates with growth only in voriconazole well, n (%)” value ([9]; 72 h) was 16 (32%) and the “low CNI plasma-concentration episode related to discontinuation of voriconazole” value ([10]; patients of the universal prophylaxis period) was 45%. The “failed to complete prophylaxis” value ([10]; receiving <9 of the intended 12 weeks, 183 patients on voriconazole prophylaxis) was 62% and the “failure to complete prophylaxis due to hepatic toxicity” value ([10]; share of the 114 patients who failed to complete) was 72%.
